Measured values from ChEMBL document CHEMBL1149571, “Proinsecticide candidates N-(5-methyl-2-oxo-1,3-dioxol-4-yl)methyl derivatives of imidacloprid and 1-chlorothiazolylmethyl-2-nitroimino-imidazolidine” (Bioorg Med Chem Lett, 2007).
Calls of active or inactive are those of the source. No cut-off for these calls is given here.

Key:
[1] = tested on: Periplaneta americana; assay: Activity at nAch receptor in american cockroach neurons assessed as induction of inward current at 10 uM by whole-cell patch clamp method
[2] = Chemical stability assessed as half life of hydrolysis in physiological solution at pH 7.6; type: physicochemical
[3] = tested on: Periplaneta americana; assay: Insecticidal activity against american cockroach after 24 hrs; type: functional
[4] = Chemical stability assessed as half life of hydrolysis in acidic buffer at pH 5.4; type: physicochemical
[5] = Chemical stability assessed as half life of hydrolysis in alkaline buffer at pH 8.3; type: physicochemical

Compound | Activity [1] | half-life [2] [h] | MLD [3] | half-life [4] [h] | half-life [5] [h]
Cc1oc(=O)oc1CN1CCN(Cc2cnc(Cl)s2)/C1=N\[N+](=O)[O-] | Active | 10.5 | 6.4 10^-8mol | > 48 | 10.6
Cc1oc(=O)oc1CN1CCN(Cc2ccc(Cl)nc2)/C1=N\[N+](=O)[O-] | Active | 11.6 | 6.4 10^-8mol | > 48 | 15.5
